One assay concerns the target T. maritima TsaD (Thermotoga maritima, UniProt Q9WXZ2). Put plainly: STD NMR. Format: binding. As to conditions: 20 µM protein, 1 mM amino acid, 10 mM potassium phosphate pH 6.8, 100 mM NaCl, 99% D2O, 37°C.
In a further assay the target is E. coli TsaD (Escherichia coli, UniProt P05852). Put plainly: STD NMR. As to conditions: 20 µM protein, 1 mM amino acid, 10 mM potassium phosphate pH 6.8, 100 mM NaCl, 99% D2O, 37°C. Format: binding.
Sequence of E. coli TsaD (P05852 whole entry): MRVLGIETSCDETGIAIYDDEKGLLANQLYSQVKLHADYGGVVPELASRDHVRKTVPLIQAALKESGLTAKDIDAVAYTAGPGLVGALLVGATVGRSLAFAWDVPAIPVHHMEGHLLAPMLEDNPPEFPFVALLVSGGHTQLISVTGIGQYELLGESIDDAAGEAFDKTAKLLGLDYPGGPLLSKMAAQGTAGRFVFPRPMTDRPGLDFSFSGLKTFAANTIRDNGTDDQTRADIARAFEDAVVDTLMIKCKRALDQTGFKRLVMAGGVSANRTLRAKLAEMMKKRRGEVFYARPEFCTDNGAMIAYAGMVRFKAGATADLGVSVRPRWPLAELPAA

Sequence of T. maritima TsaD (Q9WXZ2 whole entry): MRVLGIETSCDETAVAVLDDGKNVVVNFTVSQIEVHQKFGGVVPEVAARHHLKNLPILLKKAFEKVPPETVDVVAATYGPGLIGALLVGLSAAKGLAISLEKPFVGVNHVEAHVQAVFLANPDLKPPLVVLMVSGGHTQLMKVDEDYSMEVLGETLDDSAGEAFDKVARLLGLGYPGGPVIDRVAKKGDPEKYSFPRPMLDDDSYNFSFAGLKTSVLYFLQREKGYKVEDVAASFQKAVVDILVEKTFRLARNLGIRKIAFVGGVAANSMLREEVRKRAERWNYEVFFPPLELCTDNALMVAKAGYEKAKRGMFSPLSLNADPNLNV

Regarding `CCC(O)C(N)C(=O)O` (racemic) [hnV, D,L-3-hydroxynorvaline], on T. maritima TsaD (racemate tested), the “STD NMR” value is “interaction with hydroxynorvaline, distinct signals due to interactions with the Hα and Hβ protons”.

For `C[C@@H](O)[C@H](N)C(=O)O` [Thr, L-threonine], the “STD NMR” value at E. coli TsaD was “E. coli TsaD shows a similar pattern of interaction with threonine”; at T. maritima TsaD, “clear STD NMR signal for its interaction with the Hβ proton of threonine”.
